Results from PMC3961306, “Comparison of the Cancer Gene Targeting and Biochemical Selectivities of All Targeted Kinase Inhibitors Approved for Clinical Use” (PLoS ONE, 2014).

Experiments:
Test in all cases: Kinase profiling in a biochemical assay panel (mobility shift assays and ELISA), %-inhibition at 1 μM; selectivity entropy
[1] = biological target: panel of more than 300 wild-type and mutant kinases (313 kinase panel) (Homo sapiens, UniProt P54764); settings: kinase EPHA4; compound at 1 μM
[2] = biological target: T1, panel of more than 300 wild-type and mutant kinases (313 kinase panel) (Homo sapiens, UniProt Q9NWZ3); settings: kinase IRAK4; compound at 1 μM
T1 sequence (Q9NWZ3 1-460): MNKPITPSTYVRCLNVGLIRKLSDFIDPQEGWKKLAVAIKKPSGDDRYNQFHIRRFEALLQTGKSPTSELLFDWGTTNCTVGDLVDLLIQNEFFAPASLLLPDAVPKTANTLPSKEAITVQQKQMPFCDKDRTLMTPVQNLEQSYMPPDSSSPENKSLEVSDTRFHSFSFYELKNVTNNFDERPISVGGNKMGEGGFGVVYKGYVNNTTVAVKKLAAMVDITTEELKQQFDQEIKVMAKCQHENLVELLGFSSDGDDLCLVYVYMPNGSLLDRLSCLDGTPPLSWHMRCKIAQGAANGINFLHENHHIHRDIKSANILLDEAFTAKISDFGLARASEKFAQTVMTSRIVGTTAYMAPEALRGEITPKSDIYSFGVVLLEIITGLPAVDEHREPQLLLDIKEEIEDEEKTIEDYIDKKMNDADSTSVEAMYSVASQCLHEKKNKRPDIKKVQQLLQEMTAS

[3] = biological target: panel of more than 300 wild-type and mutant kinases (313 kinase panel) (Homo sapiens, UniProt P42684); settings: kinase ARG; 1 μM compound
[4] = biological target: panel of more than 300 wild-type and mutant kinases (313 kinase panel) (Homo sapiens, UniProt P27448)
[5] = biological target: panel of more than 300 wild-type and mutant kinases (313 kinase panel) (Homo sapiens, UniProt O60674); settings: kinase JAK2; compound at 1 μM
[6] = biological target: T2, panel of more than 300 wild-type and mutant kinases (313 kinase panel) (Homo sapiens, UniProt Q9H093); settings: kinase NuaK2; 1 μM
T2 sequence (Q9H093 1-628): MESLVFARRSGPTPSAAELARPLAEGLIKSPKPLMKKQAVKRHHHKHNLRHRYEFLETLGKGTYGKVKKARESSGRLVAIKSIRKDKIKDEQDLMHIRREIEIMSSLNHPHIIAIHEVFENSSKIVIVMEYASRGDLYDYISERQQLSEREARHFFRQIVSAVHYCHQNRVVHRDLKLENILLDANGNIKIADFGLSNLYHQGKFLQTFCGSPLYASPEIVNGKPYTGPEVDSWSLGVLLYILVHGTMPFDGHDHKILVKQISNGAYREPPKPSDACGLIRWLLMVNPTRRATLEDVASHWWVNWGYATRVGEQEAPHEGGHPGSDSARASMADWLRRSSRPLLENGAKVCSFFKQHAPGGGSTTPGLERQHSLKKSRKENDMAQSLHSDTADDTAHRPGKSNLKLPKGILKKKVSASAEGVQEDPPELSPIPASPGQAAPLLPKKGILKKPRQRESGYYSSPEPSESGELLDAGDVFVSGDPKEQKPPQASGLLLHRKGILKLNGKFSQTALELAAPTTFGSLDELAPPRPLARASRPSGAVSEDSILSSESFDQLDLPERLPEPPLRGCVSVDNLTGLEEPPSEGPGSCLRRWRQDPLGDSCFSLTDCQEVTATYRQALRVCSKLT

[7] = biological target: panel of more than 300 wild-type and mutant kinases (313 kinase panel) (Homo sapiens, UniProt P08631)
[8] = biological target: T3, panel of more than 300 wild-type and mutant kinases (313 kinase panel) (Homo sapiens, UniProt O15111); settings: kinase IKKα; compound at 1 μM
T3 sequence (O15111 1-745): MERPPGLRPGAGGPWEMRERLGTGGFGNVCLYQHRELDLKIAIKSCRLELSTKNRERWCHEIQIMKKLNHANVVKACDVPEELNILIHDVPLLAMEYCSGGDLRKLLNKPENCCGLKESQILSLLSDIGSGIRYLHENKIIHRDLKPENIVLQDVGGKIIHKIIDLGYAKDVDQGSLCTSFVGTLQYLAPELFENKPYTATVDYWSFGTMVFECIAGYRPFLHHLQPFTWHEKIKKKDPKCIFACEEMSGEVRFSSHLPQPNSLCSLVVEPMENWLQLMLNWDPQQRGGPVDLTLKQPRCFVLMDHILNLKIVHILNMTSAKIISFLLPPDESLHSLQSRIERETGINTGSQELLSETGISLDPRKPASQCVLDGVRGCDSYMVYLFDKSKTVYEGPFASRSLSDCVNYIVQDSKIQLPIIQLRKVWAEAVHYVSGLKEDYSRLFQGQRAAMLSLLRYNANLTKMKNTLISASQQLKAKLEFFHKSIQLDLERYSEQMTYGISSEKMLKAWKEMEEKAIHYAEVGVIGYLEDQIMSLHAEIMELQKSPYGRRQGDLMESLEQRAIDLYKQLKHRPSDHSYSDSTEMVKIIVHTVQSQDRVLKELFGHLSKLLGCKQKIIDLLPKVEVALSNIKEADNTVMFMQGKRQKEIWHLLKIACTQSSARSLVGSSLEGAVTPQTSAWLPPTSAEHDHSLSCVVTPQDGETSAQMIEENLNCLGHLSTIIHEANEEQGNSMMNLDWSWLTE

Chain of panel of more than 300 wild-type and mutant kinases (313 kinase panel) (Homo sapiens, UniProt P27448) (P27448 whole entry, change not shown): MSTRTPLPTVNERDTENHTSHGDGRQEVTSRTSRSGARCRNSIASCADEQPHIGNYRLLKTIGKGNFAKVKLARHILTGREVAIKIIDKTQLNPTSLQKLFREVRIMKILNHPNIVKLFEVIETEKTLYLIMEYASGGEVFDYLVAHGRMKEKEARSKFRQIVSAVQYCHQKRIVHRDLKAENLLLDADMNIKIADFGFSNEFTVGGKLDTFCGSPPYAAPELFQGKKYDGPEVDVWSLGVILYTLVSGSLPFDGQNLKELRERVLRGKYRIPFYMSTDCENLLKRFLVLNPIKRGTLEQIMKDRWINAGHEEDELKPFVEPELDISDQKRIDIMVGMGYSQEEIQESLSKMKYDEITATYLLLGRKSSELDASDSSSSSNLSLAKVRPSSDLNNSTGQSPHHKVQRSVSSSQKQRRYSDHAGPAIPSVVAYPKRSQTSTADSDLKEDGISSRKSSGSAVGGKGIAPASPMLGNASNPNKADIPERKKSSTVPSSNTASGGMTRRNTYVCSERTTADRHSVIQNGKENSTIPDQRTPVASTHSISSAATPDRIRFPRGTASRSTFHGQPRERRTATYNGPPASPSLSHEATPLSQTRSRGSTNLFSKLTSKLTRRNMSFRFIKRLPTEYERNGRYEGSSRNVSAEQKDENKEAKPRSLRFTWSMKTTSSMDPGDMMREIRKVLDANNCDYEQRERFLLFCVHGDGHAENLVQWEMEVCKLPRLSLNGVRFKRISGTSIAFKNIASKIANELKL
Chain of panel of more than 300 wild-type and mutant kinases (313 kinase panel) (Homo sapiens, UniProt P08631) (P08631 whole entry, change not shown): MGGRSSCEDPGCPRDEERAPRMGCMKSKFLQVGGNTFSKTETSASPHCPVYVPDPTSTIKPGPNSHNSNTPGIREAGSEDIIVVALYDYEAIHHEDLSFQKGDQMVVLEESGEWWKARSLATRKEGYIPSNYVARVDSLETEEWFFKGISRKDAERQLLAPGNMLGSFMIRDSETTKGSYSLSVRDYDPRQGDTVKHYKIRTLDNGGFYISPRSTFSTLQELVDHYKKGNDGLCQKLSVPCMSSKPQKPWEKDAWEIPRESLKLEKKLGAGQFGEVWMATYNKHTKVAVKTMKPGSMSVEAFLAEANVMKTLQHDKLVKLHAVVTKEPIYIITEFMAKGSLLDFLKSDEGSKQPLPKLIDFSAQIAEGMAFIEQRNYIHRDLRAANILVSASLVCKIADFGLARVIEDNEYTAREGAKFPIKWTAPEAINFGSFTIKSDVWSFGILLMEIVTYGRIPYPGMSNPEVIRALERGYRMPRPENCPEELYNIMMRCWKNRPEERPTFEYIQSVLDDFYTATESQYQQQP
Chain of panel of more than 300 wild-type and mutant kinases (313 kinase panel) (Homo sapiens, UniProt O60674) (O60674 whole entry, change not shown): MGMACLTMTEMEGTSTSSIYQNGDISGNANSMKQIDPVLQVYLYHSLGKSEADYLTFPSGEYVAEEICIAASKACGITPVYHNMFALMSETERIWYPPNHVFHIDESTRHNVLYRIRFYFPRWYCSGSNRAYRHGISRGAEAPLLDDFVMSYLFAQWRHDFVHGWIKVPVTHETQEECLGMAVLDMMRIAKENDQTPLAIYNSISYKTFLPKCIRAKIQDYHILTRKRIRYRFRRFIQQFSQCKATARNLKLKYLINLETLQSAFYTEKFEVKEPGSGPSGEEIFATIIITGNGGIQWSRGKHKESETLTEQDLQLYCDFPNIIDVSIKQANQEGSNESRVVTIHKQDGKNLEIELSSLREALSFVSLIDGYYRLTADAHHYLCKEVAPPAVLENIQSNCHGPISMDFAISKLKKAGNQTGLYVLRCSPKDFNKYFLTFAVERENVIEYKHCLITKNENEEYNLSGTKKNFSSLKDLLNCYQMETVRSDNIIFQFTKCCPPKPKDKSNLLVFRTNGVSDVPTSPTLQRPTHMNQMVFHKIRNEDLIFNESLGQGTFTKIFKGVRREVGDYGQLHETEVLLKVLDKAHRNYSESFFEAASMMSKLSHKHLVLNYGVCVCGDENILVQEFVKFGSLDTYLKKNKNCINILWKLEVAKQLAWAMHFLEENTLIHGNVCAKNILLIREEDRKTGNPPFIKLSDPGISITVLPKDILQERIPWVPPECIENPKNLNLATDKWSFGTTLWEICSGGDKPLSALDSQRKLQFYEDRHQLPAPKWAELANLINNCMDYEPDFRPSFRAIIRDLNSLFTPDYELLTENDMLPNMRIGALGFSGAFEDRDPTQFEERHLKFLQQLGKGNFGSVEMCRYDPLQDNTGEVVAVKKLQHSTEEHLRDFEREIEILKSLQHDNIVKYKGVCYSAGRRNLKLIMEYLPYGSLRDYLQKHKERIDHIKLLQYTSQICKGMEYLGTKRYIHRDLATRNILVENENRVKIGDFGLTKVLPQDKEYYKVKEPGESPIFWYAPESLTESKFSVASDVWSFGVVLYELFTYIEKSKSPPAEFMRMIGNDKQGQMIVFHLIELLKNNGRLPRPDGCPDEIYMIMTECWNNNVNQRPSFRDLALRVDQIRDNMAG
Chain of panel of more than 300 wild-type and mutant kinases (313 kinase panel) (Homo sapiens, UniProt P54764) (P54764 20-986, change not shown): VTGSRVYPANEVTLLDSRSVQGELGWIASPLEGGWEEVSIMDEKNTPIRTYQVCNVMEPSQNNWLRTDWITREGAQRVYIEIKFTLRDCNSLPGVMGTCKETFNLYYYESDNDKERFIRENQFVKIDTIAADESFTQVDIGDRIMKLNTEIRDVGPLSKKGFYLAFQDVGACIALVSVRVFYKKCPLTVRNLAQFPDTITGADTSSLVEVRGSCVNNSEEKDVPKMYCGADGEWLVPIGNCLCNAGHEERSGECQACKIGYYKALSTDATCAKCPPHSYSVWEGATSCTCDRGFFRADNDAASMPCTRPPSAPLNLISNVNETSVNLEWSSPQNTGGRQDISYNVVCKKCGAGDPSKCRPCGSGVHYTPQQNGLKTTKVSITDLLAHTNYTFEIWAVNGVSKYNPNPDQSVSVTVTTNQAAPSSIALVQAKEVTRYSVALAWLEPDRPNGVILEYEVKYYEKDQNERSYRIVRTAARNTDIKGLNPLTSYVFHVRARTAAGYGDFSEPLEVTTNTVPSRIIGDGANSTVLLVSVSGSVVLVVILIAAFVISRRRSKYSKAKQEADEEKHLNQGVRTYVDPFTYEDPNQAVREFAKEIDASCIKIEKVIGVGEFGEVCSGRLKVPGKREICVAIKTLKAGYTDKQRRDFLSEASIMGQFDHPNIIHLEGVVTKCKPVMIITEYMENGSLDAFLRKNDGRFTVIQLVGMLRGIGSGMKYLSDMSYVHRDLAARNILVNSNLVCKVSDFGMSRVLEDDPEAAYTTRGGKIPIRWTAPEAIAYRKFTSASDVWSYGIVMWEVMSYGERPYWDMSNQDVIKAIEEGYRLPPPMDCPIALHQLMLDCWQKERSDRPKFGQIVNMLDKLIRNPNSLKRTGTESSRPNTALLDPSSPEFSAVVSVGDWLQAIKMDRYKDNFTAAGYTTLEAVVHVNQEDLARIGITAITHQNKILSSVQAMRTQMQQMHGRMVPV

O=S(=O)(c1cccc2cnccc12)N1CCCNCC1 [fasudil] was tested, and the “%-inhibition of EPHA4” value [1] was -6%, the “%-inhibition of IRAK4” value [2] was -4.68% and the “%-inhibition, ARG” value [3] was -7%. For the same molecule, the “%-inhibition of MARK3” value ([4]; kinase MARK3, compound at 1 μM) was 13%, the “%-inhibition of JAK2” value [5] was 3.24% and the “%-inhibition of NuaK2” value [6] was 20%. For the same molecule, the “%-inhibition of HCK” value ([7]; kinase HCK, compound at 1 μM) was -2.15% and the “%-inhibition of IKKα” value [8] was 8%.
For CS(=O)(=O)CCNCc1ccc(-c2ccc3ncnc(Nc4ccc(OCc5cccc(F)c5)c(Cl)c4)c3c2)o1 [lapatinib], the “%-inhibition of EPHA4” value [1] was -0.823%, the “%-inhibition of IRAK4” value [2] was -2% and the “%-inhibition, ARG” value [3] was 11%. For the same molecule, the “%-inhibition of MARK3” value ([4]; 1 µM) was 3.43%, the “%-inhibition of JAK2” value [5] was -1.58% and the “%-inhibition of NuaK2” value [6] was -1.19%. For the same molecule, the “%-inhibition of HCK” value ([7]; 1 µM) was -0.366% and the “%-inhibition of IKKα” value [8] was -9%.
